# Earlier results as cited in US20060036094A1 (priority 2004, published 2006).
# Tested on: phorbol myristate-induced inflammation
substance,measurement,value
zoanthamine,inhibitory activity toward phorbol myristate-induced inflammation,potent inhibitory activity
